Laboratory results published in patent US7521459B2, “Method for treating damaged skin” (Metabeauty Inc., priority 2003, dated 2009).

Experiments:
Patient A skin = assay: Daily topical application of a 5% imiquimod composition to Patient A skin, visual inspection; format: in vivo, human; conditions: after 8 weeks of daily application
From the text: In a first example of a method of the invention, a 5% imiquimod composition is applied to Patient A skin.
(§1) One skilled in the art is familiar with many methods and techniques for evaluating or monitoring changes in the skin. […] For example, changes in pigmentation, texture, and the presence of wrinkles or fine lines can all be monitored through visual assessment. In addition, a mexameter can be used to measure skin pigment, a tewameter and/or evaporometer can be used to measure water content, a laser doppler device can measure blood flow, and a visioscan or optical profilometer can measure surface texture, wrinkles, and/or roughness. Any one or any combination of these methods can be used, in particular, to measure, monitor, or detect changes in fine wrinkles, mottled hyperpigmentation, tactile roughness, lentigines, course or deep wrinkles, telangiectasia, skin laxity, keratinocytic atypia, melanocytic atypia, and/or dermal elastosis. Thus, the methods and composition of the invention can be used to treat and/or to evaluate possible treatment compositions where any one of these diseases or conditions are present or may be present.

[1] = tested on: entire face (precancerous lesions and normal, photodamaged skin); assay: Daily application of a pea size aliquot of 5% imiquimod to the entire face of Patient B; format: in vivo, human; conditions: pea size aliquot of 5% imiquimod every day to the entire face
Description: as §1, with “In a further example of a method of the invention, Patient B is treated with a pea size aliquot of 5% imiquimod every day to the entire face. […] One” for “One”, “elastosis.” for “elastosis. Thus, the methods and composition of the invention can be used to treat and/or to evaluate possible treatment compositions where any one of these diseases or conditions are present or may be present.”

Structure (SMILES): CC(C)Cn1cnc2c(N)nc3ccccc3c21 [imiquimod, 1-isobutyl-1H-imidazo [4,5,-C] quinolin-4-amine]
- appearance of clinical wrinkles by visual inspection (Patient A skin): decreases
- general skin appearance (Patient A skin): generally improved and healthier appearance
- most noticeable improvement (Patient A skin): pigmentation and texture
- appearance of non-precancerous skin (normal, photodamaged skin) [1]: looks smoother, with more regular pigmentation, and improvement of the fine wrinkles
- irritation of non-precancerous skin (normal, photodamaged skin) [1]: does not become irritated
- reaction of areas of the skin with precancerous lesions on the nose ([1]; biopsy shows BCC in precancerous regions): became very red, eroded and irritated
